Results published in patent publication US20100297225A1, “SUSTAINED-RELEASE PHARMACEUTICAL FORMULATION CONTAINING AN ANTIMUSCARINIC AGENT AND A WETTING AGENT AS WELL AS A PROCESS FOR THE PREPARATION THEREOF” (PHARMATHEN S.A., priority 2007, published 2010).
Where a name gives a salt, the structure may show the parent alone.

Experiments:
[1] = Flowability and compressibility (Carr's Index); assay type: physicochemical
Description: The pharmaceutical composition is characterized by excellent pharmacotechnical properties, such as homogeneity, flowability and compressibility.

[2] = X-RD analysis of crystalline form after storage; assay type: physicochemical; details: 3 months storage, normal and accelerated conditions (40°C and 75% RH)
Experimental: As shown in FIG. 1 by the X-RD analysis Tolterodine Tartrate is in crystalline form and all the recorded characteristic broad peaks (approximate 20 values=12.55, 16.40, 20.00, 21.20, 22.75, 23.80, 25.65, 27.45, 34.60 and 37.60) were unchanged after 3 months storage in both normal and accelerated conditions (40° C. and 75% RH). The crystal properties remain also unchanged after three months in the same conditions when the mixture is incorporated in a pharmaceutical composition with other excipients.

## Cc1ccc(O)c([C@H](CCN(C(C)C)C(C)C)c2ccccc2)c1 [Tolterodine Tartrate, (R)—N,N-diisopropyl-3-(2-hydroxy-5-methylphenyl)-3-phenylpropylamine]
[1]
  mean Carr's Index: 38.7%
[2]
  X-RD characteristic peaks of crystalline form after storage: unchanged
